Data on eight molecules can be found in ChEMBL document CHEMBL3132769, “Fragment growing to retain or alter the selectivity of anchored kinase hinge-binding fragments” (Medchemcomm, 2014).

As usually defined, the inhibition is the drop in the measured response relative to a control, in per cent.

For test [1], the target named is Platelet-derived growth factor receptor alpha (Homo sapiens) (UniProt P16234). Nature of the test: Inhibition of human PDGFR alpha catalytic domain expressed in baculovirus assessed as substrate phosphorylation using fluorescence-labelled peptides as substrate at 0.2 uM after 90 mins by microfluidic peptide phosphorylation assay.
Test [2] has as its target Serine/threonine-protein kinase MARK1 (Homo sapiens) (UniProt Q9P0L2). To be noted: 0.1 uM.
Description: Inhibition of human full length MARK1 expressed in baculovirus assessed as substrate phosphorylation using fluorescence-labelled peptides as substrate at 0.1 uM after 90 mins by microfluidic peptide phosphorylation assay
The target of test [3] is Casein kinase I isoform alpha (Homo sapiens) (UniProt P48729). In words: Inhibition of human full length CSNK1A1 expressed in baculovirus assessed as substrate phosphorylation using fluorescence-labelled peptides as substrate at 420 uM after 90 mins by microfluidic peptide phosphorylation assay.
Test [4] addresses Protein kinase C beta type (Homo sapiens) (UniProt P05771). In words: Inhibition of human truncated PKC beta1 expressed in baculovirus assessed as substrate phosphorylation using fluorescence-labelled peptides as substrate at 420 uM after 90 mins by microfluidic peptide phosphorylation assay.
Test [5] concerns the target Protein kinase C eta type (Homo sapiens) (UniProt P24723). Nature of the test: Inhibition of human truncated PKC eta expressed in baculovirus assessed as substrate phosphorylation using fluorescence-labelled peptides as substrate at 420 uM after 90 mins by microfluidic peptide phosphorylation assay.
The target of test [6] is T1, Serine/threonine-protein kinase Sgk3 (Homo sapiens) (UniProt Q96BR1).
T1 sequence (whole entry): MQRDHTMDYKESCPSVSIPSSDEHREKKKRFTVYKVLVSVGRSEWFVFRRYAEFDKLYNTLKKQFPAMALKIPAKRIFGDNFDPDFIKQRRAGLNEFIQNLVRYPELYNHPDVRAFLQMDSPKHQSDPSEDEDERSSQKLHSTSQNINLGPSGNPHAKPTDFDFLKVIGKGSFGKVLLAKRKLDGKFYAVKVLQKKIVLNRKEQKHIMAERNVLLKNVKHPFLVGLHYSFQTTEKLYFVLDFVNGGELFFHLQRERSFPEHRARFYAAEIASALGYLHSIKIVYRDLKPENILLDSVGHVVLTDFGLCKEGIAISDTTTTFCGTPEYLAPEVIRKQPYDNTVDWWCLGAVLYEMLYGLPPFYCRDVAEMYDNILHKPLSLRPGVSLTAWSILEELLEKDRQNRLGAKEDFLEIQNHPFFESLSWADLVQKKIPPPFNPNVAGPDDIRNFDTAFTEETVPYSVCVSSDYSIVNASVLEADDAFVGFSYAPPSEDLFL
Nature of the test: Inhibition of human full length SGK3 expressed in baculovirus assessed as substrate phosphorylation using fluorescence-labelled peptides as substrate at 420 uM after 90 mins by microfluidic peptide phosphorylation assay.

The target of test [7] is Ribosomal protein S6 kinase alpha-1 (Homo sapiens) (UniProt Q15418). Nature of the test: Inhibition of human full length RSK1 expressed in baculovirus assessed as substrate phosphorylation using fluorescence-labelled peptides as substrate at 95 uM after 90 mins by microfluidic peptide phosphorylation assay.
The target of test [8] is Protein kinase C delta type (Homo sapiens) (UniProt Q05655). Nature of the test: Inhibition of human truncated PKC delta expressed in baculovirus assessed as substrate phosphorylation using fluorescence-labelled peptides as substrate at 95 uM after 90 mins by microfluidic peptide phosphorylation assay.
The target in test [9] is MAP kinase p38 (Homo sapiens) (UniProt O15264+Q15759+Q16539+P53778). In words: Inhibition of human full length p38 beta2 expressed in Escherichia coli cell assessed as substrate phosphorylation using fluorescence-labelled peptides as substrate at 9 uM after 90 mins by microfluidic peptide phosphorylation assay.
Test [10] concerns the target Cyclin-dependent kinase 2 (Homo sapiens) (UniProt P24941). In words: Inhibition of human full length CDK2 expressed in baculovirus assessed as substrate phosphorylation using fluorescence-labelled peptides as substrate at 8 uM after 90 mins by microfluidic peptide phosphorylation assay.
Test [11] addresses Proto-oncogene tyrosine-protein kinase Src (Homo sapiens) (UniProt P12931). In words: Inhibition of human full length SRC expressed in baculovirus assessed as substrate phosphorylation using fluorescence-labelled peptides as substrate at 8 uM after 90 mins by microfluidic peptide phosphorylation assay.
Test [12] concerns the target Insulin-like growth factor 1 receptor (Homo sapiens) (UniProt P08069). Nature of the test: Inhibition of human IGF1R catalytic domain expressed in baculovirus assessed as substrate phosphorylation using fluorescence-labelled peptides as substrate at 1000 uM after 90 mins by microfluidic peptide phosphorylation assay.
Test [13] addresses Mitogen-activated protein kinase kinase kinase kinase 4 (Homo sapiens) (UniProt O95819). Nature of the test: Inhibition of human HGK catalytic domain expressed in baculovirus assessed as substrate phosphorylation using fluorescence-labelled peptides as substrate at 1000 uM after 90 mins by microfluidic peptide phosphorylation assay.
Test [14] has as its target Cyclin-dependent kinase 2 (Homo sapiens) (UniProt P24941). In words: Inhibition of human full length CDK2 expressed in baculovirus assessed as substrate phosphorylation using fluorescence-labelled peptides as substrate at 1000 uM after 90 mins by microfluidic peptide phosphorylation assay.
For test [15], the target named is T2, cGMP-dependent protein kinase 1 (Homo sapiens) (UniProt Q13976).
T2 sequence (whole entry): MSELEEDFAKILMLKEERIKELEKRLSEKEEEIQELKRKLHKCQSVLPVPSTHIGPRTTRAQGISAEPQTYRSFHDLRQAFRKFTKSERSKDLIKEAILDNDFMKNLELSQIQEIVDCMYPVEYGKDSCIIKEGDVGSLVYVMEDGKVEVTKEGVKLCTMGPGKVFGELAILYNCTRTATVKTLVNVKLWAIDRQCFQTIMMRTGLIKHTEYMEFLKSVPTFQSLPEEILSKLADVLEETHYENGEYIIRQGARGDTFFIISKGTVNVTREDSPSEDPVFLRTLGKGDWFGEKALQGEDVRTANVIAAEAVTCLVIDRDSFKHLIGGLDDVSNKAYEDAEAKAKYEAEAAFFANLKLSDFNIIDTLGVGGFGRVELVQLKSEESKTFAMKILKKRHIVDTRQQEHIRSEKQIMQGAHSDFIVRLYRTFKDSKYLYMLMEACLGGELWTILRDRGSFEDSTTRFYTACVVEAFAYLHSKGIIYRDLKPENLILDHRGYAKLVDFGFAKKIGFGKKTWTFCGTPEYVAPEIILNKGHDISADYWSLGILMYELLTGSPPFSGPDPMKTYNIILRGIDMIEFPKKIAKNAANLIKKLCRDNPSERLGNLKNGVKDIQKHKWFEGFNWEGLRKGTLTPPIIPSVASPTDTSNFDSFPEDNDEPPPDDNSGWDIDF
In words: Inhibition of human full length PKG-1a expressed in baculovirus assessed as substrate phosphorylation using fluorescence-labelled peptides as substrate at 2 uM after 90 mins by microfluidic peptide phosphorylation assay.

SMILES strings stand for the structures.

Chain of Serine/threonine-protein kinase MARK1 (Homo sapiens) (Q9P0L2 whole entry, looked up, canonical isoform): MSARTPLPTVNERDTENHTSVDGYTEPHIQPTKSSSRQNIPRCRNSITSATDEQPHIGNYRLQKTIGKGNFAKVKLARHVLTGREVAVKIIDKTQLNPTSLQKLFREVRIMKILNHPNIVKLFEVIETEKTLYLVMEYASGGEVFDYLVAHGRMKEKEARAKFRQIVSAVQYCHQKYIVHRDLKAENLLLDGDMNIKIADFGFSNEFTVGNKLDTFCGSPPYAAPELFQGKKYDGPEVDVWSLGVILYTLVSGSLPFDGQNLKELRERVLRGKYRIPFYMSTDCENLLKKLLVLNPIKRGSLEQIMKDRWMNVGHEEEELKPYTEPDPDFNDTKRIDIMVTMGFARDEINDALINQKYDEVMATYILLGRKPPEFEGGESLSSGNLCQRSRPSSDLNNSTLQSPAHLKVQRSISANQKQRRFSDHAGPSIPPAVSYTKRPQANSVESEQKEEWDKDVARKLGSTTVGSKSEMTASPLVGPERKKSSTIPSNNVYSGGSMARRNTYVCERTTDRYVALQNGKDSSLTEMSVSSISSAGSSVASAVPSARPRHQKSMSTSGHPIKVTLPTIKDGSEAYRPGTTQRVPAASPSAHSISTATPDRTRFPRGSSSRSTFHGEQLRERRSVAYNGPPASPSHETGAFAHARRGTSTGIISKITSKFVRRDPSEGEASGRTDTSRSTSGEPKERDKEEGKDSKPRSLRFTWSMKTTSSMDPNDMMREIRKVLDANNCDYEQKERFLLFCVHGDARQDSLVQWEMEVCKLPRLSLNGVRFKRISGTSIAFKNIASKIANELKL
Chain of Casein kinase I isoform alpha (Homo sapiens) (P48729 2-337 limits assumed): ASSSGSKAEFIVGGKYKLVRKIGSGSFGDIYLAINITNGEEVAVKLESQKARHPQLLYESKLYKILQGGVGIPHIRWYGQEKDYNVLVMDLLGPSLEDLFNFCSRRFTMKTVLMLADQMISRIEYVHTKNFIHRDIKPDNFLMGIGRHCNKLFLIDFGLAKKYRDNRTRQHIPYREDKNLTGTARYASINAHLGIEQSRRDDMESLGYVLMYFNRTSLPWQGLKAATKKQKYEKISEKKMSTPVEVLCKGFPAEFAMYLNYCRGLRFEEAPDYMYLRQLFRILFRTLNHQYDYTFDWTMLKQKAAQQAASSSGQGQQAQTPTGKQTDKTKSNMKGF
Chain of Proto-oncogene tyrosine-protein kinase Src (Homo sapiens) (P12931 2-536 limits assumed): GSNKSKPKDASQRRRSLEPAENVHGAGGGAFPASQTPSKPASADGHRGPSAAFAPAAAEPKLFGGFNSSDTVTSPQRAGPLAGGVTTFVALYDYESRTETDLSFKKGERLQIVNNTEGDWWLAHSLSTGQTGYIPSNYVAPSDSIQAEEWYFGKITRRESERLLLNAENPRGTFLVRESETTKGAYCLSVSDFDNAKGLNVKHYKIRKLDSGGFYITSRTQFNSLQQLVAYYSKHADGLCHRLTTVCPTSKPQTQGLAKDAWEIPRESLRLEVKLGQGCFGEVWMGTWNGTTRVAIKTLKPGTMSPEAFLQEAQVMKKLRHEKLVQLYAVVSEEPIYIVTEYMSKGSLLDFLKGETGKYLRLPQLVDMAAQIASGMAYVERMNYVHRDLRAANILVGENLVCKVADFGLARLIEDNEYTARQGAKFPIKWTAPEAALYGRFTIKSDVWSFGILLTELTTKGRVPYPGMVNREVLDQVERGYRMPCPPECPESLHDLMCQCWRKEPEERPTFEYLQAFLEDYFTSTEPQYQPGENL
Chain of Platelet-derived growth factor receptor alpha (Homo sapiens) (P16234 whole entry, the tested form may be a part): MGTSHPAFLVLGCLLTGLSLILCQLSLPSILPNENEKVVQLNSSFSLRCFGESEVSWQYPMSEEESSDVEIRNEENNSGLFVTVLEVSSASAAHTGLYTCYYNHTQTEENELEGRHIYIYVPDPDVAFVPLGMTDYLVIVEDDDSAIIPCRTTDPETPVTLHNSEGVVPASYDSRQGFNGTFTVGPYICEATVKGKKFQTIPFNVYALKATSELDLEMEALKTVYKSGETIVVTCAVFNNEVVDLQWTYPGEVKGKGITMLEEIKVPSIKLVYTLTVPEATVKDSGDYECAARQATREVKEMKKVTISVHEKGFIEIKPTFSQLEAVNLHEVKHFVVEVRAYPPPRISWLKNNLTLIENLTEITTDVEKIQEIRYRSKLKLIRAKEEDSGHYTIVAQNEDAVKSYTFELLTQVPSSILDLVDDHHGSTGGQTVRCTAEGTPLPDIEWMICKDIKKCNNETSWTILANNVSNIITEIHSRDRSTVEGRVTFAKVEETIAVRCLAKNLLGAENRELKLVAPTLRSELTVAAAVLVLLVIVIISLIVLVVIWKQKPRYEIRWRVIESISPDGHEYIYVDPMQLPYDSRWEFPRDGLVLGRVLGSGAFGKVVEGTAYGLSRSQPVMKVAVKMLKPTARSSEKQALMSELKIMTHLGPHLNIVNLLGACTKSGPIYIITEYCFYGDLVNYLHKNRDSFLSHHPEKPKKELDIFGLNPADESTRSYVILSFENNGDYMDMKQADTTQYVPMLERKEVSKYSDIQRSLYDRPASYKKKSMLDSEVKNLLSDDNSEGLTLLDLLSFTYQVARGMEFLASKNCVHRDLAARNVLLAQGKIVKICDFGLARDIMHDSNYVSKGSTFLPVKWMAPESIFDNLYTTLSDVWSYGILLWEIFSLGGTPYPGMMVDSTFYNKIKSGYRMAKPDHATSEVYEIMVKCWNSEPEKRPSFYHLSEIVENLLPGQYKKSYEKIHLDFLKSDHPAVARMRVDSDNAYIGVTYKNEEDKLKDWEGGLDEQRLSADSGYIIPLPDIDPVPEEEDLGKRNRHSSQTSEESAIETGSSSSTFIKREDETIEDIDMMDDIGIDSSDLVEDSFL
Chain of Ribosomal protein S6 kinase alpha-1 (Homo sapiens) (Q15418 whole entry, the tested form may be a part): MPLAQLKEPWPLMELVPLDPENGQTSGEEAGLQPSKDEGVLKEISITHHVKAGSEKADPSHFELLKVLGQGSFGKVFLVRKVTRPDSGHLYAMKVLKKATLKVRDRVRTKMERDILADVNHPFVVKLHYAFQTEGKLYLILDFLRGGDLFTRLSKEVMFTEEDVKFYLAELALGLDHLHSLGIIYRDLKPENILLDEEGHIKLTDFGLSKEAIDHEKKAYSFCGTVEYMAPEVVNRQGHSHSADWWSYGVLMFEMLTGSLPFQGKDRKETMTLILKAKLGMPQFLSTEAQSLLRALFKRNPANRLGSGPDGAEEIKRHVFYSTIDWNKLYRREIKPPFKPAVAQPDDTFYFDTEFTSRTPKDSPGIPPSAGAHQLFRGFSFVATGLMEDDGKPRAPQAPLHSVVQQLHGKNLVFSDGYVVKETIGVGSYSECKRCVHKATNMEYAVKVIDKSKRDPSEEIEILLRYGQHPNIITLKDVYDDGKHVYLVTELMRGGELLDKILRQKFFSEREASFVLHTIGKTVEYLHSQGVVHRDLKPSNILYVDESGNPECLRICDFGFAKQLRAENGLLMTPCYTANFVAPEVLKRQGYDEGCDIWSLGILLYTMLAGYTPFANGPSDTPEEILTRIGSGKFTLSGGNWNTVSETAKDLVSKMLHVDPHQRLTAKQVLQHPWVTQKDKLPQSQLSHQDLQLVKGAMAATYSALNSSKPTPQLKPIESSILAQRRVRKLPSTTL
Chain of Protein kinase C beta type (Homo sapiens) (P05771 2-671 limits assumed): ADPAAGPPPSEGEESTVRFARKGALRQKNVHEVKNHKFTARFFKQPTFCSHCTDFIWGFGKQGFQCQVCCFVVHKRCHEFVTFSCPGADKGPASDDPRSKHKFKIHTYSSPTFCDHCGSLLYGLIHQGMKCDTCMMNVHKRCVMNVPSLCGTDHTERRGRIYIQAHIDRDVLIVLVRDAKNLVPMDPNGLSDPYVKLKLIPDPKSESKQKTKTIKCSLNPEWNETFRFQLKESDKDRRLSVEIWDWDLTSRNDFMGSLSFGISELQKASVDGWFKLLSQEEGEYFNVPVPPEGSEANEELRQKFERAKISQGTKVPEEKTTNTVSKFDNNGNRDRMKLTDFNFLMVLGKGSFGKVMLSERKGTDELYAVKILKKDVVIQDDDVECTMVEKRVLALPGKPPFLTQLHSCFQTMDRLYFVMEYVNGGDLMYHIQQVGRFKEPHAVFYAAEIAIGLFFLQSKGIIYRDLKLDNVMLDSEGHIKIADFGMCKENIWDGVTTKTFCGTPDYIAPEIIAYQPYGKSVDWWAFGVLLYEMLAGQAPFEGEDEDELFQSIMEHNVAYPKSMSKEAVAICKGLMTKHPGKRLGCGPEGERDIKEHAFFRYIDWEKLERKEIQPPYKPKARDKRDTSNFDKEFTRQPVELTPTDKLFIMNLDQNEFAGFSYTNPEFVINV
Chain of Protein kinase C eta type (Homo sapiens) (P24723 whole entry, the tested form may be a part): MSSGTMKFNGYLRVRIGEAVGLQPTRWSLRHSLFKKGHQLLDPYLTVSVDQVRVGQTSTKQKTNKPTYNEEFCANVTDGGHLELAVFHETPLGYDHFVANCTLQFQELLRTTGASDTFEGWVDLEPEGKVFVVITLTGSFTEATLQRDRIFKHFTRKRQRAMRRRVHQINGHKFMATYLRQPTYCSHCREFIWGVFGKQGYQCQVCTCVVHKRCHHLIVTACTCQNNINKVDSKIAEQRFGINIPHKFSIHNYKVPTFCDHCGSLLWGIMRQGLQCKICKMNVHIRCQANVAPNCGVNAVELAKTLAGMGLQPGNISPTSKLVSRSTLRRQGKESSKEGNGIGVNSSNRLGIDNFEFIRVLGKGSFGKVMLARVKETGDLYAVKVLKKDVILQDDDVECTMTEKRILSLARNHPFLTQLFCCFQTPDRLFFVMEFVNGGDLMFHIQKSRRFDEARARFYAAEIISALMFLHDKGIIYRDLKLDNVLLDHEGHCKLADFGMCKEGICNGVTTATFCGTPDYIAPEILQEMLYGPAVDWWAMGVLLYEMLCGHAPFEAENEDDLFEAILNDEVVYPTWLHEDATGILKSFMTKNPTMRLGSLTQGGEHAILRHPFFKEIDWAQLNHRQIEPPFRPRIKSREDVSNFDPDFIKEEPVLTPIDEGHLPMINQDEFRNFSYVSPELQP

For the molecule `Clc1ccc(C2(c3ccc(-c4ncnc5[nH]cnc45)cc3)CCNCC2)cc1`, the inhibition in test [1] turned out to be 0.5%.
`C[C@H](CN(C)C)Oc1nc(Nc2cc3cccc(Cl)c3cn2)cnc1C#N` yielded an inhibition in test [2] of 0%.
On to `c1nc(N2CCOCC2)c2nc[nH]c2n1`, for which the inhibition in test [3] was 60.5%; in [4], 70%; in test [5], 82%; in test [6], 63%.
In the case of `NCCc1ccc(-c2ncnc3[nH]cnc23)cc1`, the inhibition was 83.5% in test [7] and 72% in test [8].
For `NCC1CN(c2ncnc3[nH]c4cnccc4c23)CCO1` (stereo not given), in test [9], the inhibition was 0%.
As to `NCC1CCN(c2ncnc3[nH]ccc23)CC1`, the inhibition turned out to be 7% in test [10] and 1.5% in [11].
As to `c1cnc2[nH]ccc2c1`, the figures for the inhibition in [12], in [13] and in test [14] were 51.5%, 90% and 45.5%, respectively.
As to `NC1CCN(c2ncnc3[nH]ccc23)CC1`, the inhibition in [15] turned out to be 10%.
